By IC50 is commonly meant the concentration that gives 50% inhibition. Broadly, the mortality is the percentage killed. As usually defined, the Kd is the equilibrium constant for the complex coming apart. A low value points to tighter binding.

Structures are written as SMILES. The source made the active and inactive calls. The rule behind the calls is not given here. Some results are limits rather than exact numbers.

The results in this text go back to ChEMBL document CHEMBL5344425, “Discovery of 5-(Pyrimidin-2-ylamino)-1H-indole-2-carboxamide Derivatives as Nur77 Modulators with Selective and Potent Activity Against Triple-Negative Breast Cancer” (J Med Chem, 2023).

The subject of series [1] is T47D. The experiment in a line: Antiproliferative activity against human T47D cells assessed as inhibition of cell growth measured after 24 hrs by MTT assay. In kind it is functional, cell-based. In general terms: Tetrazolium assays rely on reduction of a dye to a coloured formazan, in cell work by metabolically active cells.
Series [2] is described as follows: Cytotoxicity against human MCF-10A cells assessed as inhibition of cell growth measured after 24 hrs by MTT assay. In kind it is toxicity, cell-based.
In series [3] the test system is MDA-MB-231. Put plainly: Antiproliferative activity against human MDA-MB-231 cells assessed as inhibition of cell growth measured after 24 hrs by MTT assay. The series is classed as functional, cell-based. To be noted: MDA-MB-231, 24 h.
The target in series [4] is T1, Nuclear receptor subfamily 4immunitygroup A member 1 (Homo sapiens, UniProt P22736). The experiment in a line: Binding affinity to His-tagged Nur77 ligand binding domain (unknown origin) at 10 uM by surface plasmon resonance assay. To be noted: filed as modulator. In general terms: Surface plasmon resonance follows binding to a sensor surface in real time, without labels.

Series [5] can be described thus: Toxicity in Zebra fish AB embryo assessed as mortality rate at 1.25 to 5 uM measured after 24 hrs. To be noted: zebrafish, dose 1.25-5 µM. Further details: species or system Danio rerio.
Series [6] can be described thus: Toxicity in Zebra fish AB embryo assessed as mortality rate at 1.25 uM measured after 24 to 72 hrs. Also noted: species or system Danio rerio. To be noted: AB, zebrafish, time 24-72 hrs.
Series [7] addresses T1, Nuclear receptor subfamily 4immunitygroup A member 1. Put plainly: Antagonist activity at Nur77 ligand binding domain (unknown origin) transfected in HEK293T cells cotransfected with pG5-Luc assessed as inhibition of receptor transcriptional activity at 2 uM measured after 12 hrs by luciferase reporter gene assay. In kind it is cell-based. To be noted: filed as antagonist.

Series [8] shares this target. Put plainly: Binding affinity to His-tagged Nur77 ligand binding domain (unknown origin) by surface plasmon resonance assay.

T1 sequence (P22736 whole entry, the tested form may be a part): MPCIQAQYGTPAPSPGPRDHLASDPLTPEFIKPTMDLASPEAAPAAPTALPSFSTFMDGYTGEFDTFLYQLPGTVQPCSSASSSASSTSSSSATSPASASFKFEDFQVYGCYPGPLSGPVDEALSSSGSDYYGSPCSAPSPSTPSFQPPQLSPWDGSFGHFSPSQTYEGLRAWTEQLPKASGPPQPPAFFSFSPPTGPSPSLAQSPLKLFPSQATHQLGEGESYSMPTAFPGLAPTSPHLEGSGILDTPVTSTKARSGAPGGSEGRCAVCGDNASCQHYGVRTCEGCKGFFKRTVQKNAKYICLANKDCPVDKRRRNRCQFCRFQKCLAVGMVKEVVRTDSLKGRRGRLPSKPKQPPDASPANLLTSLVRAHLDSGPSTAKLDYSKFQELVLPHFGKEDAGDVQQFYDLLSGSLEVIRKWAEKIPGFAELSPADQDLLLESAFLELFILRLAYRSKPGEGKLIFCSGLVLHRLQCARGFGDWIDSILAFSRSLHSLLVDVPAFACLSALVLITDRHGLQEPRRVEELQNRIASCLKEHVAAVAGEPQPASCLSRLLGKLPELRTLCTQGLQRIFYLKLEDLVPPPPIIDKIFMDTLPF

`CN(C)CCCNC(=O)c1cc2cc(Nc3nccc(-c4ccc(C(F)(F)F)cc4)n3)ccc2[nH]1`: the results for the IC50 in series [1] and in series [3] were 9.23 µM and 0.91 µM, respectively. The IC50 at 24 h in series [2] is 2.09 µM.
The corresponding values for `CN(C)CCNC(=O)c1cc2cc(Nc3nccc(-c4ccc(C(F)(F)F)cc4)n3)ccc2[nH]1` are 6.71 µM, 10.3 µM and 2.12 µM.
Regarding `COc1ccc(-c2ccnc(Nc3ccc4[nH]c(C(=O)NCCCN(C)C)cc4c3)n2)cc1OC`, the IC50 in series [1] stood at 6.01 µM; in series [3], 2.58 µM. In series [2], the IC50 at 24 h came to 15 µM. In addition, the result in series [4] was Active.
With `COc1ccc(-c2ccnc(Nc3ccc4[nH]c(C(=O)NCCN5CCCC5)cc4c3)n2)cc1OC`, the IC50 worked out at 3.26 µM in series [1] and 4.02 µM in series [3]. In series [2], the IC50 at 24 h is 9.71 µM.
As for `Cc1nc(-c2ccnc(Nc3ccc4[nH]c(C(=O)NCCN(C)C)cc4c3)n2)c(C)s1`, the IC50 in series [1] is 3.65 µM; in series [3], above 20 µM. In addition, the IC50 at 24 h in series [2] is 15 µM. Further, in series [4], the result was Active.
In the same order, the values of `CCN(CC)CCCNC(=O)c1cc2cc(Nc3nccc(-c4ccccc4)n3)ccc2[nH]1` are 3.24 µM, 7.24 µM, 13 µM and “Active”.
As to `CN(C)CCCNC(=O)c1cc2cc(Nc3nccc(-c4cc(OCc5ccccc5)cc(OCc5ccccc5)c4)n3)ccc2[nH]1`, the values for the IC50 in series [1] and in series [3] were 11.4 µM and 1.69 µM, respectively. Besides, the IC50 at 24 h in series [2] was determined as 3.9 µM.
Regarding `CCN(CC)CCCNC(=O)c1cc2cc(Nc3nccc(-c4ccc(C(F)(F)F)cc4)n3)ccc2[nH]1`, the IC50 was 6.19 µM in series [1] and 6.52 µM in series [3]. For the same compound, the IC50 at 24 h in series [2] turned out to be 6.57 µM.
Take `CCN(CC)CCCNC(=O)c1cc2cc(Nc3nccc(-c4cc(OCc5ccccc5)cc(OCc5ccccc5)c4)n3)ccc2[nH]1`: the IC50 in series [1] is 1.89 µM; in series [3] it was above 20 µM. In series [2], the IC50 at 24 h came out at 2.89 µM.
In the same order, the values of `Cc1nc(-c2ccnc(Nc3ccc4[nH]c(C(=O)NCCCN(C)C)cc4c3)n2)c(C)s1` are 16 µM, above 20 µM and 15.9 µM.
For `CN(C)CCCNC(=O)c1cc2cc(Nc3nccc(-c4cccs4)n3)ccc2[nH]1`, the IC50 is 4.28 µM in series [1] and above 20 µM in series [3]. In addition, in series [2], the IC50 at 24 h is above 20 µM. Also, the result in series [4] was Active.
For `Cc1nc(-c2ccnc(Nc3ccc4[nH]c(C(=O)NCCN5CCOCC5)cc4c3)n2)c(C)s1`, the IC50 in series [1] and in series [3] was above 20 µM in each case. Besides, the IC50 at 24 h in series [2] is 15.4 µM.
Turning to `CCN(CC)CCCNC(=O)c1cc2cc(Nc3nccc(-c4nc(C)sc4C)n3)ccc2[nH]1`, the IC50 in series [1] and in series [3] was above 20 µM each time. Also, the IC50 at 24 h in series [2] came out at 19.2 µM. The outcome in series [4] was Active.
In the case of `CN(C)CCNC(=O)c1cc2cc(Nc3nccc(-c4ccccc4)n3)ccc2[nH]1`, the IC50 is above 20 µM in series [1] and 8.04 µM in series [3]. The IC50 at 24 h in series [2] is above 20 µM. For the same compound, the outcome in series [4] was Active.
As to `CCN(CC)CCCNC(=O)c1cc2cc(Nc3nccc(-c4cccnc4)n3)ccc2[nH]1`, the half-inhibitory concentration (IC50) was above 20 µM in series [1] and 10.5 µM in series [3]. Further, in series [2], the IC50 at 24 h was above 20 µM.
Consider `CCCCN(CCCC)CCCNC(=O)c1cc2cc(Nc3nccc(-c4cccnc4)n3)ccc2[nH]1`, for which the figures for the IC50 in series [1] and in series [3] were 10.6 µM and 4.3 µM, respectively. In addition, the IC50 at 24 h in series [2] came out at 6.48 µM. In addition, the result in series [4] was Active.
Consider `O=C(NCCN1CCCCC1)c1cc2cc(Nc3nccc(-c4cccc(OCc5ccccc5)c4)n3)ccc2[nH]1`, for which the IC50 is above 20 µM in series [1] and 5.41 µM in series [3]. Further, the IC50 at 24 h in series [2] was determined as 1.76 µM.
`CN(C)CCNC(=O)c1cc2cc(Nc3nccc(-c4cccc(OCc5ccccc5)c4)n3)ccc2[nH]1`: the IC50 in series [1] and in series [3] was above 20 µM in each case. Besides, the IC50 at 24 h in series [2] was above 20 µM.
For `COc1ccc2[nH]cc(CCNC(=O)c3cc4cc(Nc5nccc(-c6cccnc6)n5)ccc4[nH]3)c2c1`, the IC50 in series [1] turned out to be 8.36 µM; in series [3] it was 18.2 µM. Further, the IC50 at 24 h in series [2] is above 20 µM.
The corresponding values for `COc1ccc(-c2ccnc(Nc3ccc4[nH]c(C(=O)NCCN5CCN(C)CC5)cc4c3)n2)cc1OC` are 14.4 µM, 17.4 µM and above 20 µM.
The corresponding values for `Cc1nc(-c2ccnc(Nc3ccc4[nH]c(C(=O)NCCN5CCCC5)cc4c3)n2)c(C)s1` are above 20 µM, above 20 µM and above 20 µM.
Take `CC1=C(O)C(=O)C=C2C1=CC=C1[C@@]2(C)CC[C@@]2(C)[C@@H]3C[C@](C)(C(=O)O)CC[C@]3(C)CC[C@]12C` [CELASTROL]: the IC50 in series [1] is above 20 µM. Moreover, the IC50 at 24 h in series [2] was 5.45 µM. In addition, the mortality at 24 h, up to 5 µM in series [5] is 100%. Moreover, the outcome in series [4] was Active. Besides, the mortality at 1.25 µM in series [6] is 100%. The inhibition result in series [7] was “Active”.
As to `CN(C)CCCNC(=O)c1cc2cc(Nc3nccc(-c4ccccc4)n3)ccc2[nH]1`, the IC50 in series [1] came to 7.88 µM; in series [3], 8.87 µM. Also, the IC50 at 24 h in series [2] was above 20 µM. For the same compound, the outcome in series [4] was Active.
Turning to `CCCCN(CCCC)CCCNC(=O)c1cc2cc(Nc3nccc(-c4ccccc4)n3)ccc2[nH]1`, the values for the IC50 in series [1] and in series [3] were 15.2 µM and 7.8 µM, respectively. The IC50 at 24 h in series [2] is 4.96 µM.
`CCN(CC)CCCNC(=O)c1cc2cc(Nc3nccc(-c4ccc(Cl)s4)n3)ccc2[nH]1`: the IC50 is 2.3 µM in series [1] and 6.7 µM in series [3]. Also, in series [2], the IC50 at 24 h came out at 5.54 µM. Besides, the result in series [4] was Active.
In series [8], `O=C(N/N=C/c1ccncc1)c1ccc(Nc2ccnc3ccccc23)cc1` returned a Kd of 1.17 µM.
Take `CCCCCNC(=O)c1cc2cc(Nc3nccc(-c4ccccc4)n3)ccc2[nH]1`: the IC50 was above 20 µM in series [1] and 17.3 µM in series [3]. In series [2], the IC50 at 24 h is above 20 µM. Besides, the result in series [4] was Active.
For `CCN(CC)CCCNC(=O)c1cc2cc(Nc3nccc(-c4cccs4)n3)ccc2[nH]1`, the IC50 in series [1] is 8.41 µM; in series [3], 3.27 µM. In series [2], the IC50 at 24 h turned out to be 14.3 µM. The result in series [4] was Active.
`CN(C)CCNC(=O)c1cc2cc(Nc3nccc(-c4cccnc4)n3)ccc2[nH]1`: the half-inhibitory concentration (IC50) in series [1] was above 20 µM; in series [3], 3.12 µM. In addition, the IC50 at 24 h in series [2] is above 20 µM.
As for `CCN(CC)CCCNC(=O)c1cc2cc(Nc3nccc(-c4cccc(OCc5ccccc5)c4)n3)ccc2[nH]1`, the IC50 in series [1] and in series [3] was above 20 µM each time. In addition, the IC50 at 24 h in series [2] is above 20 µM.
Take `CN(C)CCCNC(=O)c1cc2cc(Nc3nccc(-c4ccc(Cl)s4)n3)ccc2[nH]1`: the IC50 in series [1] is 4.29 µM; in series [3] it was 6.14 µM. Also, the IC50 at 24 h in series [2] was found to be 7.43 µM. The outcome in series [4] was Active.
Consider `CC(C)N(CCNC(=O)c1cc2cc(Nc3nccc(-c4ccccc4)n3)ccc2[nH]1)C(C)C`, for which the results for the IC50 in series [1] and in series [3] were 9.41 µM and 11.1 µM, respectively. For the same compound, in series [2], the IC50 at 24 h was determined as 4.05 µM.
Consider `CCN(CC)CCCNC(=O)c1cc2cc(Nc3nccc(-c4ccccc4OC)n3)ccc2[nH]1`, for which the IC50 was determined as 13 µM in series [1] and 8.32 µM in series [3]. Further, in series [2], the IC50 at 24 h is above 20 µM. In addition, the result in series [4] was Active.
Take `COc1ccccc1-c1ccnc(Nc2ccc3[nH]c(C(=O)NCCCN(C)C)cc3c2)n1`: the IC50 in series [1] is above 20 µM; in series [3], 4.79 µM. Besides, the IC50 at 24 h in series [2] was above 20 µM.
`CN(C)CCCNC(=O)c1cc2ccc(Nc3nccc(-c4cccnc4)n3)cc2[nH]1` had a Kd in series [8] of 0.354 µM. For the same compound, the figures for the IC50 in series [1] and in series [3] were above 20 µM and 3.09 µM, respectively. Besides, the IC50 at 24 h in series [2] was above 20 µM. For the same compound, the result in series [4] was Active.
As for `CCN(CC)CCCNC(=O)c1cc2cc(Nc3nccc(-c4ccc(OC)c(OC)c4)n3)ccc2[nH]1`, the 50% inhibitory concentration (IC50) in series [1] was determined as 11.4 µM; in series [3], 5.98 µM. Also, in series [2], the IC50 at 24 h is 3.57 µM. In addition, in series [4], the result was Active.
